“And” between values parts separate entries of the source, which are not always exact repeats. Identical values can stand only once. Marks after values point to notes of the source that are not given here.
Legend:
[1] = Mouse bolus injection assay (blood and brain levels of Epothilones); conditions: for Brain plasma ratio: after 20 min, iv application; for concentration at 10 min / concentration at 20 min / concentration at 40 min / AUC(0-t) / Kp: male, SCID, mouse, in vivo, 5 mg/kg; for AUC(0-t) / Kp: iv
Procedure: Mouse Bolus Injection Assay
(In Vivo Assay for the Evaluation of Blood and Brain Levels of Epothilones)
Male SCID mice (20-25 g, non-leaky) were treated with a single dose of tritium-labeled Epothilones and paclitaxel (5 mg/kg; 7.4 MBq/mg; in 30% Hydroxypropyl-β-cyclodextrin (HPβCD)/NaCl iv bolus injection). Partitioning of radioactivity between blood and brain was measured by liquid scintillation counting (LSC) and HPLC-radioflow at three time points (10, 20 and 40 min) after injection.

Human U373 glioma cells = assay: In vivo efficacy against xenografted (s.c.) and intracerebral human glioma; conditions: for i. cer. Brain Tumor Volume d 32: i.cer. U373 in NMRI nu/nu-mice; for RTV s.c. Tumors d 25 (Relative Tumor Volume): s.c. U373 in NMRI nu/nu-mice
Procedure: In vivo assay for the evaluation of efficacy of Epothilones against xenografted and intracerebral human glioma.
(§1) Female NMRI nu/nu-mice (20-28 g) were used for this experiment. Human U373 glioma cells were implanted s.c. (1×10^7/mouse) as well as i.cer. (2×10^5/mouse) on day 0. Treatment was started on day 7 when the s.c. tumors were approximately 0,05 cm^3 in size. […] After termination of the experiment, the size of the brain tumors was determined (Table 2).

[2] = Tolerability (deaths, body weight change) in the U373 glioma study; type: in vivo, NMRI nu/nu-mice; conditions: for BWC d 7-17 (Body Weight Change) / Deaths/total (d): NMRI nu/nu-mice
Procedure: as §1

[3] = in vivo; cited from earlier work
[4] = 5 mg/kg iv bolus, 3H-labeled, male SCID mice
[5] = 10 min after 5 mg/kg iv bolus, 3H-labeled, male SCID mice
[6] = 20 min after 5 mg/kg iv bolus, 3H-labeled, male SCID mice
[7] = 40 min after 5 mg/kg iv bolus, 3H-labeled, male SCID mice
[8] = Group B: 9 mg/kg i.v., days 7, 14
[9] = Group C: 2 mg/kg i.v., days 7, 9, 11, 14, 16, 18
[10] = both schedules (groups B and C) vs. untreated control

SMILES | Brain AUC (0-40 min) [1, 4] | Brain plasma ratio [1] | concentration at 10 min [1] | concentration at 20 min [1] | concentration at 40 min [1] | AUC(0-t) [1] | Kp [1] | Brain conc. mean [1, 5] | Brain conc. mean [1, 6] | Brain conc. mean [1, 7] | also measured
CCCC1C(=O)C(C)(C)C(O)CC(=O)OC(C(C)=Cc2csc(C)n2)CC=C(C)CCCC(C)C1O (stereo not drawn) [Compound 1, 4,8-dihydroxy-16-(1-methyl-2-(2-methyl-4-thiazolyl)-ethenyl)-1-oxa-7-(1-propyl)-5,5,9,13-tetramethyl-cyclohexadec-13-ene-2,6-dione] | 21 µg·min/mL | higher brain plasma ratio | 800 ng/mL and 300 ng/g | 600 ng/mL and 800 ng/g | 300 ng/mL and 600 ng/g | 333 ng·h/mL | 1 | – | – | – | –
CCCC1C(=O)C(C)(C)C(O)CC(=O)OC(C(C)=Cc2csc(C)n2)CC2OC2(C)CCCC(C)C1O (stereo not drawn) [Compound 2] | 35 µg·min/mL | higher brain plasma ratio | – | – | – | – | – | 1.1 µg/g | 1.1 µg/g | 0.8 µg/g | Plasma AUC (0-40 min) [1, 4]: 31 µg·min/mL; Plasma conc. mean [1, 5]: 1.6 µg/mL; Plasma conc. mean [1, 6]: 0.7 µg/mL; Plasma conc. mean [1, 7]: 0.3 µg/mL; AUC Ratio Brain/Plasma ([1]; partial AUC 0-40 min, 5 mg/kg iv bolus, male SCID mice): 1.2
C=CCC1C(=O)C(C)(C)C(O)CC(=O)OC(c2ccc3sc(C)nc3c2)CC2OC2(C)CCCC(C)C1O (stereo not drawn) [Compound 3, 7,11-dihydroxy-3-(2-methylbenzothiazol-5-yl)-10-(prop-2-en-1-yl)-8,8,12,16-tetramethyl-4,17-dioxabicyclo[14.1.0]heptadecane-5,9-dione] | 20 µg·min/mL | – | 1200 ng/mL and 900 ng/g | 700 ng/mL and 300 ng/g | 300 ng/mL and 600 ng/g | 417 ng·h/mL | 0.8 | – | – | – | i. cer. Brain Tumor Volume d 32 (Human U373 glioma cells; [8]): 0.002* mm^3; RTV s.c. Tumors d 25 (Relative Tumor Volume) (Human U373 glioma cells; [8]): 1.15; i. cer. Brain Tumor Volume d 32 (Human U373 glioma cells; [9]): 0.96 mm^3; RTV s.c. Tumors d 25 (Relative Tumor Volume) (Human U373 glioma cells; [9]): 1.40; Therapeutic effect on i.cer. U373 brain tumors (Human U373 glioma cells; [10]): significant therapeutic effect; Therapeutic effect on s.c. U373 tumors (Human U373 glioma cells; [10]): significant therapeutic effect; BWC d 7-17 (Body Weight Change) [2, 8]: −7%; Deaths/total (d) [2, 8]: 0/10; BWC d 7-17 (Body Weight Change) [2, 9]: −3%; Deaths/total (d) [2, 9]: 1/10; Body weight loss ([2]; treatment groups B and C): Only a moderate body weight loss (not significant)
CC(=O)O[C@H]1C(=O)[C@@]2(C)[C@H]([C@H](OC(=O)c3ccccc3)[C@]3(O)C[C@H](OC(=O)[C@H](O)[C@@H](NC(=O)c4ccccc4)c4ccccc4)C(C)=C1C3(C)C)[C@]1(OC(C)=O)CO[C@@H]1C[C@@H]2O [Paclitaxel, reference compound] | 0 µg·min/mL | – | 800 ng/mL | 600 ng/mL | 200 ng/mL | 317 ng·h/mL | – | <LOQ | <LOQ | <LOQ | Detection in the brain ([1]; 40 minutes after application): detected in the brain in considerable amounts; Concentration in brain samples ([1]; all brain samples (10, 20, 40 min)): below the limit of quantitation; Ability to penetrate the BBB [3]: only low ability to penetrate the BBB

Reference: patent US20040019088A1, “Use of Epothilones in the treatment of brain diseases associated with proliferative processes” (Schering AG, priority 2002, published 2004)
